The text below walks through data of US4435381A, “Thiouronium phosphonates for use in dental treatments” (priority 1983, dated 1984).

Assay [1] relates to S. mutans. The assay can be described thus: Acid inhibition (AI): 0.1 normal NaOH needed to neutralize acid produced by S. mutans from sucrose after 48 hours. The following applies: trypticase-yeast medium containing sucrose, 48 hours incubation. It counts as cell-based. On the procedure:
Acid inhibition (AI) is a measure of acid production when S. mutans attacks sucrose to form pyruvic and lactic acids. The organism is added to a culture medium (trypticase-yeast) containing sucrose, and after 48 hours incubation, the quantity of 0.1 normal NaOH (in ml) needed to neutralize the acid is measured.

Assay [2] has as its system S. mutans. The assay can be described thus: Minimum inhibitory and minimum bactericidal concentrations against S. mutans grown in a typical culture medium. The assay is classed as cell-based. Conditions: Streptococcus mutans; for MBC: read-out: MBC (minimum bactericidal concentration); for MIC: read-out: MIC (minimum inhibitory concentration).
For assay [3], the system named is S. mutans. In words: Plaque inhibition in the hamster (S. mutans infected). The assay is classed as in vivo, Golden Syrian hamsters. The following applies: Test 2; mean scoring value (approximate percentage of surface); 28 days, 0.3% Methocel suspension, 200 μl per treatment; Methocel control 13.96 ± 1.49; significantly different from control at p ≤ 0.01. On the procedure:
Representative thiouronium phosphonates were tested against hamsters as in vivo subjects, as follows.
Golden Syrian hamsters (3-4 wks of age), obtained from GIBCO Animal Resources Laboratories, Madison, Wis. were used in all studies. Upon receipt, the animals were randomly distributed into cages of three animals of the same sex per cage. Experimental groups consisted of twelve animals, six males and six females. Food (Diet 2000, General Biochemicals Co.) and deionized water were allowed ad libitum. Food consumption was monitored three times a week while animal weights were checked twice a week.
After an acclimation period of 10 days, the oral cavities of the hamsters were infected with a cariogenic strain of S. mutans (ATCC 10449, SR 500). This was accomplished by injecting […] of a 24 hr. culture grown static in Todd-Hewitt broth (supplemented with 0.5% lactalbumin hydrolysate) into their mouths, and by adding 2 ml/100 ml of the culture to their drinking water. This was repeated daily for four days. On the fifth day, fresh water was given to the hamsters.
To insure that the organism had actually implanted, the oral cavity of each hamster was swabbed on the sixth day. […]
After all data had been recorded, the codes were broken, the data re-grouped and the various treatment groups compared by a non-parametric one-way analysis of variance.

[4] abbreviates: against S. mutans grown in a typical culture medium.

The structures appear in SMILES notation. In brackets after ≈: the same amount, converted by molar mass. Read-outs that look alike come from different tables or passages of the source.

For the compound `CCCCCCCCCCSC(=N)N` [n=10, R=C6 H5, n-Decyl thiouronium phenylphosphonate], the “AI (acid inhibition; amount of 0.1 normal NaOH required)” value in assay [1] was 1.25 mL. Also, in assay [2] (setting [4]), the MBC stood at 3.9 µg/mL (≈ 18 µM) and the MIC stood at 2 µg/mL (≈ 9.24 µM).
Consider `CCCCCCCCCCCSC(=N)N` [n=11, R=C6 H5], for which the “AI (acid inhibition; amount of 0.1 normal NaOH required)” value in assay [1] was 0.5 mL. Further, in assay [2] (setting [4]), the MBC was 2 µg/mL (≈ 8.68 µM) and the MIC was 1 µg/mL (≈ 4.34 µM).
`CCCCCCCCCCCCCSC(=N)N` [n=13, R=C6 H5, Tridecyl thiouronium phenylphosphonate]: the “AI (acid inhibition; amount of 0.1 normal NaOH required)” value in assay [1] came to 0.3 mL. Moreover, in assay [2] (setting [4]), the MBC came to 2 µg/mL (≈ 7.74 µM) and the MIC was determined as 1 µg/mL (≈ 3.87 µM). The “Molar Surface Covered with Plaque” value in assay [3] is on record as 7.06 ± 1.16.
In the case of `CCCCCCCCCCCCCCSC(=N)N` [n=14, R=CH3, n-Tetradecyl thiouronium methanephosphonate], the “AI (acid inhibition; amount of 0.1 normal NaOH required)” value in assay [1] was 0.5 mL. Moreover, in assay [2], the MBC came to 7.8 µg/mL (≈ 28.6 µM) and the MIC is 1 µg/mL (≈ 3.67 µM).
